According to the supplement of paper PMC11061612:

What was measured:
Assay in all cases: Bliss excess, mean over the matrix (fraction); higher = more synergy
[1] = test system: LC4-1 (B-Lymphoblastic Leukemia)
Procedure, shortened: (§1)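 Cell lines in DMEM/F12 or RPMI with 10% FBS were plated in 1536-well plates, held 24 hours at 37°C, 5% CO2, then given two-drug dose matrices for 72 hours (DMSO typically 0.2%). Viability was read by CellTiter-Glo 2.0 luminescence and scaled as inhibition from 0 (vehicle wells) to 1 (blank wells). Combination Emax is the second-highest inhibition in the matrix; Bliss excess is observed combination effect minus expected EA + EB − EA·EB, EA and EB being single-agent effects.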

[2] = test system: NB7 (Neuroblastoma)
Procedure, shortened: as §1

[3] = test system: NCI-H1573 (Lung Adenocarcinoma)
Procedure, shortened: as §1

[4] = test system: KYSE-50 (Esophageal Squamous Cell Carcinoma)
Procedure, shortened: as §1

[5] = test system: KLE (Endometrial Carcinoma)
Procedure, shortened: as §1

[6] = test system: OCUB-M (Breast Carcinoma)
Procedure, shortened: as §1

[7] = test system: JHH-7 (Hepatocellular Carcinoma)
Procedure, shortened: as §1

[8] = test system: NCI-H513 (Other Solid Carcinomas)
Procedure, shortened: as §1

[9] = test system: NCI-H2405 (Lung Adenocarcinoma)
Procedure, shortened: as §1

[10] = test system: PFSK-1 (Other Solid Carcinomas)
Procedure, shortened: as §1

[11] = test system: NCI-H322M (Lung Adenocarcinoma)
Procedure, shortened: as §1

[12] = test system: OVISE (Ovarian Carcinoma)
Procedure, shortened: as §1

[13] = test system: SNU-C1 (Colorectal Carcinoma)
Procedure, shortened: as §1

[14] = test system: NCI-N87 (Gastric Carcinoma)
Procedure, shortened: as §1

[15] = test system: SCC-3 (B-Cell Non-Hodgkin's Lymphoma)
Procedure, shortened: as §1

[16] = test system: KINGS-1 (Low Grade Glioma)
Procedure, shortened: as §1

[17] = test system: A704 (Kidney Carcinoma)
Procedure, shortened: as §1

[18] = test system: SCC-9 (Oral Cavity Carcinoma)
Procedure, shortened: as §1

[19] = test system: EW-13 (Ewing's Sarcoma)
Procedure, shortened: as §1

[20] = test system: EW-18 (Ewing's Sarcoma)
Procedure, shortened: as §1

For `CN(CCO)CC[C@H](CSc1ccccc1)Nc1ccc(S(=O)(=O)NC(=O)c2ccc(N3CCC([C@@H](O)c4ccccc4-c4ccc(Cl)cc4)CC3)cc2)cc1S(=O)(=O)C(F)(F)F` [AZD4320] + Cc1cc2ncnn2cc1Nc1ncc2c(n1)n(C1CCOCC1)c(=O)n2C [AZD7648] (first compound max 1 µM, 7x7, partner max 10 µM), the Bliss excess [1] was 0.0066, the Bliss excess [2] was -0.0286 and the Bliss excess [3] was -0.0358. The Bliss excess [4] was -0.0198, the Bliss excess [5] was -0.0116 and the Bliss excess [6] was 0.0104. For the same compound, the Bliss excess [7] was -0.0253, the Bliss excess [8] was -0.0438 and the Bliss excess [9] was -0.0351. For the same compound, the Bliss excess [10] was 0.0756, the Bliss excess [11] was -0.0426 and the Bliss excess [12] was -0.0033. It also gave a Bliss excess [13] of -0.0376, a Bliss excess [14] of -0.0695 and a Bliss excess [15] of -0.0018. For the same compound, the Bliss excess [16] was -0.0152, the Bliss excess [17] was -0.0394 and the Bliss excess [18] was -0.0121. It also gave a Bliss excess [19] of -0.0223 and a Bliss excess [20] of -0.0372.
`COc1nnc2ccc(N3CCC(c4ccc(OCCN5CCN(C)C(=O)[C@H]5C)cc4)CC3)nn12` [AZD5153] + C=CCn1c(=O)c2cnc(Nc3ccc(N4CCN(C)CC4)cc3)nc2n1-c1cccc(C(C)(C)O)n1 [AZD1775] (first compound max 1 µM, partner max 1 µM) showed a Bliss excess [1] of -0.0018, a Bliss excess [2] of -0.0352 and a Bliss excess [3] of -0.0197. It also gave a Bliss excess [4] of 0.0211, a Bliss excess [5] of -0.0754 and a Bliss excess [6] of -0.0224. It also gave a Bliss excess [7] of -0.0749, a Bliss excess [8] of -0.0857 and a Bliss excess [9] of 0.0195. The Bliss excess [10] was -0.109, the Bliss excess [11] was -0.106 and the Bliss excess [12] was -0.0081. The Bliss excess [13] was -0.0563, the Bliss excess [14] was -0.0415 and the Bliss excess [15] was -0.046. The Bliss excess [16] was -0.0123, the Bliss excess [17] was -0.0375 and the Bliss excess [18] was 0.0175. The Bliss excess [19] was -0.0239 and the Bliss excess [20] was -0.0163.
Work on `COc1nnc2ccc(N3CCC(c4ccc(OCCN5CCN(C)C(=O)[C@H]5C)cc4)CC3)nn12` [AZD5153] + CC1(C)CCC(CN2CCN(c3ccc(C(=O)NS(=O)(=O)c4ccc(NCC5CCOCC5)c([N+](=O)[O-])c4)c(Oc4cnc5[nH]ccc5c4)c3)CC2)=C(c2ccc(Cl)cc2)C1 [Venetoclax] (first compound max 1 µM, 7x7, partner max 1 µM) yielded a Bliss excess [1] of -0.0482, a Bliss excess [2] of -0.0287 and a Bliss excess [3] of -0.0885. For the same compound, the Bliss excess [4] was -0.0591, the Bliss excess [5] was -0.0384 and the Bliss excess [6] was -0.0299. It also gave a Bliss excess [7] of -0.0676, a Bliss excess [8] of -0.086 and a Bliss excess [9] of -0.0484. It also gave a Bliss excess [10] of -0.0853, a Bliss excess [11] of -0.076 and a Bliss excess [12] of -0.013. It also gave a Bliss excess [13] of -0.061, a Bliss excess [14] of -0.0978 and a Bliss excess [15] of -0.0213. The Bliss excess [16] was -0.0288, the Bliss excess [17] was -0.0016 and the Bliss excess [18] was -0.0478. The Bliss excess [19] was 0.0173 and the Bliss excess [20] was -0.0371.
In the case of `COc1nnc2ccc(N3CCC(c4ccc(OCCN5CCN(C)C(=O)[C@H]5C)cc4)CC3)nn12` [AZD5153] + CCN(CCO)CCCOc1ccc2c(Nc3cc(CC(=O)Nc4cccc(F)c4)[nH]n3)ncnc2c1 [AZD2811] (first compound max 1 µM, 7x7, partner max 1 µM), the Bliss excess [1] is reported as -0.0739, the Bliss excess [2] is reported as -0.0296 and the Bliss excess [3] is reported as -0.0621. The Bliss excess [4] was -0.0309, the Bliss excess [5] was -0.0704 and the Bliss excess [6] was -0.133. The Bliss excess [7] was -0.0696, the Bliss excess [8] was -0.108 and the Bliss excess [9] was -0.0102. It also gave a Bliss excess [10] of -0.0478, a Bliss excess [11] of -0.0612 and a Bliss excess [12] of -0.017. For the same compound, the Bliss excess [13] was -0.0694, the Bliss excess [14] was -0.0589 and the Bliss excess [15] was 0.0474. For the same compound, the Bliss excess [16] was -0.0374, the Bliss excess [17] was 0.0278 and the Bliss excess [18] was -0.0476. For the same compound, the Bliss excess [19] was 0.0251 and the Bliss excess [20] was -0.0273.
Compound `COc1nnc2ccc(N3CCC(c4ccc(OCCN5CCN(C)C(=O)[C@H]5C)cc4)CC3)nn12` [AZD5153] + C[C@@H]1COCCN1C2=NC(=NC(=C2)C3(CC3)[S@](=N)(=O)C)C4=C5C=CNC5=NC=C4 [AZD6738] (first compound max 1 µM, 7x7, partner max 10 µM) has a Bliss excess [1] of -0.0721, a Bliss excess [2] of -0.0111 and a Bliss excess [3] of 0.0531. For the same compound, the Bliss excess [4] was 0.0172, the Bliss excess [5] was -0.0287 and the Bliss excess [6] was 0.0415. The Bliss excess [7] was 0.04, the Bliss excess [8] was 0.0117 and the Bliss excess [9] was 0.0638. For the same compound, the Bliss excess [10] was -0.0115, the Bliss excess [11] was -0.102 and the Bliss excess [12] was -0.0213. It also gave a Bliss excess [13] of -0.0404, a Bliss excess [14] of -0.0135 and a Bliss excess [15] of -0.0195. It also gave a Bliss excess [16] of -0.0124, a Bliss excess [17] of -0.0278 and a Bliss excess [18] of 0.0394. It also gave a Bliss excess [19] of 0.0682 and a Bliss excess [20] of -0.0306.
With `COc1nnc2ccc(N3CCC(c4ccc(OCCN5CCN(C)C(=O)[C@H]5C)cc4)CC3)nn12` [AZD5153] + Cc1c2c(nn1C)CSCc1cc(n(C)n1)CSc1cc(c3ccccc3c1)OCCCc1c(C(=O)O)n(C)c3c-2c(Cl)ccc13 [AZD5991] (first compound max 1 µM, 7x7, partner max 1 µM) the Bliss excess [1] was -0.0736, the Bliss excess [2] was 0.0105 and the Bliss excess [3] was 0.0475. It also gave a Bliss excess [4] of 0.0144, a Bliss excess [5] of -0.0228 and a Bliss excess [6] of 0.0063. It also gave a Bliss excess [7] of -0.0306, a Bliss excess [8] of -0.0287 and a Bliss excess [9] of 0.01. It also gave a Bliss excess [10] of 0.0454, a Bliss excess [11] of -0.0517 and a Bliss excess [12] of -0.039. For the same compound, the Bliss excess [13] was -0.0376, the Bliss excess [14] was -0.0073 and the Bliss excess [15] was 0.029. For the same compound, the Bliss excess [16] was -0.0146, the Bliss excess [17] was -0.0297 and the Bliss excess [18] was -0.0322. It also gave a Bliss excess [19] of -0.0502 and a Bliss excess [20] of 0.0235.
`COc1nnc2ccc(N3CCC(c4ccc(OCCN5CCN(C)C(=O)[C@H]5C)cc4)CC3)nn12` [AZD5153] + Cn1cnc2c(F)c(Nc3ccc(Br)cc3Cl)c(C(=O)NOCCO)cc21 [Selumetinib] (first compound max 1 µM, 7x7, partner max 10 µM) gave a Bliss excess [1] of 0.012, a Bliss excess [2] of -0.0011 and a Bliss excess [3] of 0.0491. It also gave a Bliss excess [4] of 0.0571, a Bliss excess [5] of -0.0636 and a Bliss excess [6] of -0.0036. It also gave a Bliss excess [7] of -0.0274, a Bliss excess [8] of -0.051 and a Bliss excess [9] of -0.0297. It also gave a Bliss excess [10] of 0.0031, a Bliss excess [11] of 0.0052 and a Bliss excess [12] of -0.0304. It also gave a Bliss excess [13] of -0.0447, a Bliss excess [14] of -0.0399 and a Bliss excess [15] of -0.053. The Bliss excess [16] was -0.029, the Bliss excess [17] was -0.0077 and the Bliss excess [18] was 0.042. For the same compound, the Bliss excess [19] was -0.0577 and the Bliss excess [20] was -0.0364.
